Measured values from the NIST ThermoML archive (doi:10.1021/je4009415).

Key:
[1] = refractive index (Na D-line) (dimensionless); conditions: 298.15 K; 101.33 kPa; Liquid; Standard Abbe refractometry
[2] = Liquid; for mass density: Vibrating tube method; for vapor or sublimation pressure: Ebulliometric method (Recirculating still)
[3] = xn = mol fraction of the nth substance listed; conditions: Liquid, Vibrating tube method

CCC(=O)OC [methyl propanoate]
Conditions	refractive index
[1]	1.3743

[2]
Conditions	mass density [kg/m3]	vapor or sublimation pressure [kPa]
288.15 K	921.21	–
298.15 K	909.1	–
308.15 K	896.91	–
318.15 K	884.71	–
328.15 K	872.22	–
335.15 K	–	55
336.38 K	–	57.5
337.53 K	–	60
338.61 K	–	62.5
339.76 K	–	65
340.79 K	–	67.5
341.81 K	–	70
342.79 K	–	72.5
343.75 K	–	75
344.68 K	–	77.5
345.59 K	–	80
346.49 K	–	82.5
347.35 K	–	85
348.2 K	–	87.5
349.03 K	–	90
349.83 K	–	92.5
350.62 K	–	95
352.34 K	–	100
352.72 K	–	101.32
352.75 K	–	101.32
353.81 K	–	105
355.23 K	–	110
356.53 K	–	115
357.87 K	–	120
359.16 K	–	125
360.42 K	–	130
361.65 K	–	135
362.8 K	–	140
363.97 K	–	145
365.05 K	–	150
366.15 K	–	155
367.22 K	–	160
368.27 K	–	165
369.26 K	–	170
370.25 K	–	175
371.22 K	–	180
372.2 K	–	185
373.12 K	–	190
374.01 K	–	195
374.9 K	–	200
375.77 K	–	205
376.63 K	–	210
377.52 K	–	215
378.3 K	–	220
379.14 K	–	225
379.96 K	–	230
380.72 K	–	235
381.51 K	–	240
382.25 K	–	245
383.03 K	–	250
383.74 K	–	255
384.47 K	–	260
385.21 K	–	265
385.87 K	–	270
386.61 K	–	275
387.28 K	–	280

CCC(=O)OC [methyl propanoate] + CCCCC
mass density [kg/m3], [3], 101 kPa
Conditions	288.15 K	298.15 K
x1 = 0.0597	644.23	–
x1 = 0.0641	–	635.16
x1 = 0.0925	651.9	–
x1 = 0.0938	–	642.1
x1 = 0.1482	–	654.98
x1 = 0.1507	665.97	–
x1 = 0.204	679.21	–
x1 = 0.2099	–	670.19
x1 = 0.2574	–	682.36
x1 = 0.2614	693.95	–
x1 = 0.3127	707.38	–
x1 = 0.3135	–	696.99
x1 = 0.3382	714.27	–
x1 = 0.3389	–	703.72
x1 = 0.3927	729.16	–
x1 = 0.3942	–	718.75
x1 = 0.442	743.09	–
x1 = 0.4459	–	733.12
x1 = 0.4985	759.2	–
x1 = 0.4999	–	748.56
x1 = 0.5461	773.25	–
x1 = 0.5478	–	762.56
x1 = 0.5921	–	775.9
x1 = 0.5926	787.12	–
x1 = 0.6407	801.96	–
x1 = 0.6434	–	791.33
x1 = 0.6898	–	805.83
x1 = 0.69	817.19	–
x1 = 0.7559	–	826.88
x1 = 0.7581	839.01	–
x1 = 0.8051	–	842.74
x1 = 0.8072	855.11	–
x1 = 0.8487	868.74	–
x1 = 0.8499	–	857.54
x1 = 0.8891	882.39	–
x1 = 0.8915	–	871.51
x1 = 0.9538	904.73	–
x1 = 0.9601	–	894.98
x1 = 1	921.21	909.1

CCCCCCCCC [nonane]
Conditions	refractive index
[1]	1.4032

[2]
Conditions	mass density [kg/m3]	vapor or sublimation pressure [kPa]
288.15 K	721.65	–
298.15 K	713.85	–
308.15 K	705.96	–
318.15 K	698.06	–
328.15 K	690.17	–
423.9 K	–	101.32

CCCCCCCCC [nonane] + CCC(=O)OC
[3], x2 = 0
Conditions	mass density [kg/m3]
288.15 K	721.65
298.15 K	713.85
308.15 K	705.96
318.15 K	698.06
328.15 K	690.17

CCCCCCCCC [nonane] + CCOC(=O)CC
[3], x2 = 0
Conditions	mass density [kg/m3]
288.15 K	721.65
298.15 K	713.85
308.15 K	705.96
318.15 K	698.06
328.15 K	690.17

CCCCC [pentane]
Conditions	refractive index
[1]	1.3547

[2]
Conditions	mass density [kg/m3]	vapor or sublimation pressure [kPa]
288.15 K	630.78	–
298.15 K	620.9	–
298.91 K	–	70
299.82 K	–	72.5
300.77 K	–	75
301.65 K	–	77.5
302.52 K	–	80
303.38 K	–	82.5
304.22 K	–	85
305.02 K	–	87.5
305.81 K	–	90
306.62 K	–	92.5
307.37 K	–	95
308.12 K	–	97.5
308.87 K	–	100
309.23 K	–	101.32
310.28 K	–	105
311.64 K	–	110
312.97 K	–	115
314.26 K	–	120
315.5 K	–	125
316.7 K	–	130
317.87 K	–	135
319.01 K	–	140
320.11 K	–	145
321.17 K	–	150
322.24 K	–	155
323.25 K	–	160
324.26 K	–	165
325.24 K	–	170
326.18 K	–	175
327.12 K	–	180
328.03 K	–	185
328.93 K	–	190
329.8 K	–	195
330.66 K	–	200
331.51 K	–	205
332.34 K	–	210
333.15 K	–	215
333.95 K	–	220
334.73 K	–	225
335.5 K	–	230
336.28 K	–	235
337.02 K	–	240
337.75 K	–	245
338.47 K	–	250
339.19 K	–	255
339.89 K	–	260
340.59 K	–	265
341.27 K	–	270
341.94 K	–	275
342.6 K	–	280

Conditions	mass density [kg/m3]
[2], 298.15 K, 101 kPa	620.91

CCCCC [pentane] + CCC(=O)OC
[3], 101 kPa, x2 = 0
Conditions	mass density [kg/m3]
288.15 K	630.78
298.15 K	620.91

CCCCC [pentane] + CCOC(=O)CC
[3], x2 = 0
Conditions	mass density [kg/m3]
288.15 K	630.78
298.15 K	620.9
